Experimental data published in US20200062773A1, “4,4a,5,7-TETRAHYDRO-3H-FURO[3,4-b]PYRIDINYL COMPOUNDS” (Janssen Pharmaceutlca NV, priority 2016, published 2020).

Legend:
[1] = Phase 2 trial, development terminated June 2013; cited from earlier work
[2] = biological target: T1, BACE2 (Homo sapiens, UniProt Q9Y5Z0); assay: BACE2 biochemical FRET based assay; details: recombinant BACE2, 450 minutes at room temperature, pH 5.0
T1 construct: recombinant BACE2 protein in a final concentration of 0.4 μg/ml
T1 sequence (Q9Y5Z0 63-518): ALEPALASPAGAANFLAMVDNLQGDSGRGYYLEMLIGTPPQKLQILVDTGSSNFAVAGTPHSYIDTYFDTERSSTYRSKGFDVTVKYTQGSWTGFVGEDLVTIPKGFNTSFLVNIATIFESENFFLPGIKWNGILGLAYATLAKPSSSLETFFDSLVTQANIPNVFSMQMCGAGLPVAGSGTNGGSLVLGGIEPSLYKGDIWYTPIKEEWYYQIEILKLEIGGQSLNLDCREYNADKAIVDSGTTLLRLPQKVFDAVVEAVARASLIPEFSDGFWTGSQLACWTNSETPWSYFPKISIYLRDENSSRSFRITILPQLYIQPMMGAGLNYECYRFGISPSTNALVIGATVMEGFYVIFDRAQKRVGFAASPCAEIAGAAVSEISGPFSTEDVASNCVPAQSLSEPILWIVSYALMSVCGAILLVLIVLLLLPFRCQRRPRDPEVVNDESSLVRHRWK
Outline: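 Recombinant BACE2 (0.4 μg/ml) incubated 450 min at room temperature with 10 μM Mca/Dnp Swedish-APP FRET substrate in 50 mM citrate pH 5.0, 0.05% PEG, no DMSO. Fluorescence (ex 320/em 405 nm) difference T450 minus T0; IC50 from least-squares fit of % control versus concentration.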

[3] = tested on: Abeta 1-42 in cerebrospinal fluid (CSF); assay: Pharmacology in the beagle dog: beta-amyloid profile in CSF after a single dose; assay type: in vivo; details: for % Mean decrease in Abeta 1-42 at 8 h post dosing compared to own baseline / % Mean decrease in Abeta 1-42 at 25 h post dosing compared to own baseline / % Mean decrease in Abeta 1-42 at 49 h post dosing compared to own baseline: beagle dog CSF
Protocol: Pharmacology in the Beagle Dog
(§1) Test compounds were tested to evaluate the effect on the beta-amyloid profile in cerebrospinal fluid (CSF) of dogs after a single dose, in combination with pharmacokinetic (PK) follow up and limited safety evaluation. For each of compound 4b, 3c, 7d, or 14, four beagle dogs (2 males, 2 females) were dosed with vehicle (1 ml/kg of an aqueous solution of 20% cyclodextrin) and 12, 8, 4 and 4 beagle dogs (2 males and 2 females per dosage group), were dosed with test compounds as follows:
(§2) CSF was taken in conscious animals directly from the lateral ventricle via a cannula which was screwed in the skull and covered with subcutaneous tissue and skin, before and at 4, 8, 25 and 49 hours after dosing. Eight hours after dosing the animals got access to their regular meal for 30 minutes. Blood was taken for PK follow up (0.5, 1, 2, 4, 8, 25 and 49 hours) and serum samples for biochemistry were taken before and at 8 and 25 h after dosing. The CSF samples were used for measurement of Abeta 1-42.

[4] = tested on: Abeta 1-42 produced and secreted into the medium of human neuroblastoma SKNBE2 cells; assay: Cellular αLisa assay in SKNBE2 cells; assay type: cell-based; details: human neuroblastoma SKNBE2 cells expressing hAPP695, 18 hours incubation
Outline: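 Human neuroblastoma SKNBE2 cells expressing wild-type hAPP695 were exposed to compound for 18 hours. Secreted Abeta 1-42 in medium was quantified by sandwich αLisa (AbN/25 and cAb42/26 beads; 1 h, excitation 650 nm, emission 615 nm). IC50 came from a least-squares curve fit of % Controlmin against concentration.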

[5] = biological target: T2, BACE1 (Homo sapiens, UniProt P56817); assay: BACE1 biochemical FRET based assay; details: Method 1: recombinant BACE1 1 μg/ml, 120 min at room temperature, pH 5.0
T2 construct: recombinant BACE1 protein in a final concentration of 1 μg/ml
T2 sequence (P56817 46-501): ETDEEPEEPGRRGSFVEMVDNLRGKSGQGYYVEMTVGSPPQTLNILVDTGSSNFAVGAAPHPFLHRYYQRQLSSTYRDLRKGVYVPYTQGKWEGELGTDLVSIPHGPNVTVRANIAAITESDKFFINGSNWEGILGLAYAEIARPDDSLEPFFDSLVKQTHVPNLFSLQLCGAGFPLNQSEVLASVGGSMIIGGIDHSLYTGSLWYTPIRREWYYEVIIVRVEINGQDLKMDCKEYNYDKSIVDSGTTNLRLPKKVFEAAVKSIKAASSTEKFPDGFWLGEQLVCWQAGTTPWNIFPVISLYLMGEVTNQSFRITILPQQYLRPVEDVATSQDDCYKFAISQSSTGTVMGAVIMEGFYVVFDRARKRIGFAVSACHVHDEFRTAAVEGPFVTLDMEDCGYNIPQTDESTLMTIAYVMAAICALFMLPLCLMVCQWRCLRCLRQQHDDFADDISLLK
Outline: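 Recombinant BACE1 (1 μg/ml) incubated 120 min at room temperature with 10 μm Mca/Dnp-quenched 13-mer APP Swedish-mutant peptide in 40 mM citrate pH 5.0, 0.04% PEG, 4% DMSO. Fluorescence (ex 320/em 405 nm) change between T0 and T120 gives activity; IC50 from least-squares curve fit of % control versus concentration.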

[6] = Limited safety evaluation in the beagle dog (observations, serum biochemistry); assay type: in vivo; details: one female dog dosed at 0.08 mg/kg, single dose, 8 h post dosing
Protocol: as §1
as §2, with “Blood was taken for PK follow up (0.5, 1, 2, 4, 8, 25 and 49 hours) and serum samples for biochemistry were taken before and at 8 and 25 h after dosing.” left out

Biochemical FRET based assay pIC50 [2] | EC50 Aβ42 ([3]; beagle dog, CSF Abeta 1-42 after single dose) [µg/mL] | Cellular αLisa assay in SKNBE2 cells Abeta 42 pIC50 [4] | Biochemical FRET based assay pIC50 [5] | SMILES | liver abnormalities (patients affected) [1] | % Mean decrease in Abeta 1-42 at 8 h post dosing compared to own baseline ([3]; single dose 0.08 mg/kg) [%] | % Mean decrease in Abeta 1-42 at 25 h post dosing compared to own baseline ([3]; single dose 0.08 mg/kg) [%] | % Mean decrease in Abeta 1-42 at 49 h post dosing compared to own baseline ([3]; single dose 0.08 mg/kg) | % Mean decrease in Abeta 1-42 at 8 h post dosing compared to own baseline ([3]; single dose 0.31 mg/kg) [%] | % Mean decrease in Abeta 1-42 at 25 h post dosing compared to own baseline ([3]; single dose 0.31 mg/kg) [%] | % Mean decrease in Abeta 1-42 at 49 h post dosing compared to own baseline ([3]; single dose 0.31 mg/kg) [%] | Observations [6]
– | – | – | – | NC1=N[C@@]2(c3cc(NC(=O)c4ccc(F)cn4)ccc3F)COC[C@H]2CS1 [LY2886721] | four out of 45 | – | – | – | – | – | – | –
7.97 | 0.019 | 8.52 | 9.06 | C[C@@]1(C#N)C[C@@H]2[C@@H](C(F)(F)F)OC[C@]2(c2cc(NC(=O)c3ccc(C#N)cn3)ccc2F)N=C1N [3c] | – | 29 | 27 | NR (NR means % decrease < 20) | 64 | 62 | 50 | moderate diarrhea
